In ChEMBL document CHEMBL3885881, “DrugMatrix”:

Species: Rattus norvegicus
Assay: DrugMatrix - Regimen: Daily Repeat
Assay type: toxicity, organism-based, Sprague-Dawley
Design: regimen Daily Repeat, gender Male, age 6-8 weeks
Settings: in vivo, po, route oral GAVAGE, vehicle .5 % CMC; for ABSOLUTE BASOPHIL / ABSOLUTE EOSINOPHIL / ABSOLUTE LYMPHOCYTE / ABSOLUTE MONOCYTE / ABSOLUTE SEGMENTED NEUTROPHIL / BASOPHIL / EOSINOPHIL / ERYTHROCYTE COUNT / HEMATOCRIT / HEMOGLOBIN / LEUKOCYTE COUNT / LYMPHOCYTE / MEAN CORPUSCULAR HEMOGLOBIN / MEAN CORPUSCULAR HEMOGLOBIN CONCENTRATION / MEAN CORPUSCULAR VOLUME / MONOCYTE / NEUTROPHIL / NUCLEATED RED BLOOD CELLS / PLATELET COUNT: tissue Blood; for ALANINE AMINOTRANSFERASE / ALBUMIN / ALKALINE PHOSPHATASE / ASPARTATE AMINOTRANSFERASE / BLOOD UREA NITROGEN / CARBON DIOXIDE / CHLORIDE / CHOLESTEROL / CREATINE PHOSPHOKINASE / CREATININE / GLUCOSE / LACTATE DEHYDROGENASE / LIPASE / PHOSPHORUS / POTASSIUM / SODIUM / TOTAL BILIRUBIN / TOTAL PROTEIN / URIC ACID: tissue Plasma
[1] = 50 mg/kg, 120 h, dose level Low, time 5 day
[2] = 1500 mg/kg, 72 h, dose level High, time 3 day
[3] = 1500 mg/kg, 120 h, dose level High, time 5 day

CN(C)[C@@H]1C(O)=C(C(N)=O)C(=O)[C@@]2(O)C(O)=C3C(=O)c4c(O)ccc(Cl)c4[C@@](C)(O)[C@H]3C[C@@H]12 [CHLORTETRACYCLINE]
ABSOLUTE BASOPHIL [1]: 0 CELLS/uL
ABSOLUTE EOSINOPHIL [1]: 0 CELLS/uL
ABSOLUTE LYMPHOCYTE [1]: 12641 CELLS/uL
ABSOLUTE MONOCYTE [1]: 0 CELLS/uL
ABSOLUTE SEGMENTED NEUTROPHIL [1]: 859 CELLS/uL
BASOPHIL [1]: 0%
EOSINOPHIL [1]: 0%
ERYTHROCYTE COUNT [1]: 5.53 x10E6/uL
HEMATOCRIT [1]: 33.27%
HEMOGLOBIN [1]: 13.43 G/DL
LEUKOCYTE COUNT [1]: 13.5 x10E3/uL
LYMPHOCYTE [1]: 93.33%
MEAN CORPUSCULAR HEMOGLOBIN [1]: 24.33 pg
MEAN CORPUSCULAR HEMOGLOBIN CONCENTRATION [1]: 40.4 G/DL
MEAN CORPUSCULAR VOLUME [1]: 60.17 fL
MONOCYTE [1]: 0%
NEUTROPHIL [1]: 6.67%
NUCLEATED RED BLOOD CELLS [1]: 0 /100WBC
PLATELET COUNT [1]: 1240.33 x10E3/uL
ALANINE AMINOTRANSFERASE [1]: 54 u/L
ALBUMIN [1]: 4.03 G/DL
ALKALINE PHOSPHATASE [1]: 291.33 u/L
ASPARTATE AMINOTRANSFERASE [1]: 84 u/L
BLOOD UREA NITROGEN [1]: 17.33 mg/dL
CARBON DIOXIDE [1]: 22.67 mmol/L
CHLORIDE [1]: 103.33 MEQ/L
CHOLESTEROL [1]: 58.33 mg/dL
CREATINE PHOSPHOKINASE [1]: 329.33 u/L
CREATININE [1]: 0.2 mg/dL
GLUCOSE [1]: 159.67 mg/dL
LACTATE DEHYDROGENASE [1]: 155.33 u/L
LIPASE [1]: 9.33 u/L
PHOSPHORUS [1]: 12.97 mg/dL
POTASSIUM [1]: 6.97 MEQ/L
SODIUM [1]: 144.3 MEQ/L
TOTAL BILIRUBIN [1]: 0.17 mg/dL
TOTAL PROTEIN [1]: 5.73 G/DL
URIC ACID [1]: 2.13 mg/dL
ABSOLUTE BASOPHIL [2]: 0 CELLS/uL
ABSOLUTE EOSINOPHIL [2]: 19 CELLS/uL
ABSOLUTE LYMPHOCYTE [2]: 5616.67 CELLS/uL
ABSOLUTE MONOCYTE [2]: 262.67 CELLS/uL
ABSOLUTE SEGMENTED NEUTROPHIL [2]: 601.67 CELLS/uL
BASOPHIL [2]: 0%
EOSINOPHIL [2]: 0.33%
ERYTHROCYTE COUNT [2]: 5.83 x10E6/uL
HEMATOCRIT [2]: 36%
HEMOGLOBIN [2]: 14.6 G/DL
LEUKOCYTE COUNT [2]: 6.5 x10E3/uL
LYMPHOCYTE [2]: 86%
MEAN CORPUSCULAR HEMOGLOBIN [2]: 25.13 pg
MEAN CORPUSCULAR HEMOGLOBIN CONCENTRATION [2]: 40.57 G/DL
MEAN CORPUSCULAR VOLUME [2]: 61.8 fL
MONOCYTE [2]: 4%
NEUTROPHIL [2]: 9.67%
NUCLEATED RED BLOOD CELLS [2]: 0 /100WBC
PLATELET COUNT [2]: 1359 x10E3/uL
ALANINE AMINOTRANSFERASE [2]: 54 u/L
ALBUMIN [2]: 4.27 G/DL
ALKALINE PHOSPHATASE [2]: 407 u/L
ASPARTATE AMINOTRANSFERASE [2]: 99.33 u/L
BLOOD UREA NITROGEN [2]: 17 mg/dL
CARBON DIOXIDE [2]: 25 mmol/L
CHLORIDE [2]: 104.33 MEQ/L
CHOLESTEROL [2]: 70.33 mg/dL
CREATINE PHOSPHOKINASE [2]: 633 u/L
CREATININE [2]: 0.16 mg/dL
GLUCOSE [2]: 163.67 mg/dL
LACTATE DEHYDROGENASE [2]: 129.67 u/L
LIPASE [2]: 9.33 u/L
PHOSPHORUS [2]: 12.37 mg/dL
POTASSIUM [2]: 5.95 MEQ/L
SODIUM [2]: 148.37 MEQ/L
TOTAL BILIRUBIN [2]: 0.23 mg/dL
TOTAL PROTEIN [2]: 6 G/DL
URIC ACID [2]: 1.87 mg/dL
ABSOLUTE BASOPHIL [3]: 0 CELLS/uL
ABSOLUTE EOSINOPHIL [3]: 167.33 CELLS/uL
ABSOLUTE LYMPHOCYTE [3]: 18100 CELLS/uL
ABSOLUTE MONOCYTE [3]: 0 CELLS/uL
ABSOLUTE SEGMENTED NEUTROPHIL [3]: 1266 CELLS/uL
BASOPHIL [3]: 0%
EOSINOPHIL [3]: 0.67%
ERYTHROCYTE COUNT [3]: 5.62 x10E6/uL
HEMATOCRIT [3]: 34.33%
HEMOGLOBIN [3]: 13.93 G/DL
LEUKOCYTE COUNT [3]: 19.53 x10E3/uL
LYMPHOCYTE [3]: 92.67%
MEAN CORPUSCULAR HEMOGLOBIN [3]: 24.83 pg
MEAN CORPUSCULAR HEMOGLOBIN CONCENTRATION [3]: 40.6 G/DL
MEAN CORPUSCULAR VOLUME [3]: 61.17 fL
MONOCYTE [3]: 0%
NEUTROPHIL [3]: 6.67%
NUCLEATED RED BLOOD CELLS [3]: 0.33 /100WBC
PLATELET COUNT [3]: 1340 x10E3/uL
ALANINE AMINOTRANSFERASE [3]: 61.33 u/L
ALBUMIN [3]: 3.73 G/DL
ALKALINE PHOSPHATASE [3]: 422.33 u/L
ASPARTATE AMINOTRANSFERASE [3]: 86.33 u/L
BLOOD UREA NITROGEN [3]: 19.67 mg/dL
CARBON DIOXIDE [3]: 28.67 mmol/L
CHLORIDE [3]: 100.67 MEQ/L
CHOLESTEROL [3]: 57 mg/dL
CREATINE PHOSPHOKINASE [3]: 301.67 u/L
CREATININE [3]: 0.19 mg/dL
GLUCOSE [3]: 151.33 mg/dL
LACTATE DEHYDROGENASE [3]: 67 u/L
LIPASE [3]: 10.33 u/L
PHOSPHORUS [3]: 11.03 mg/dL
POTASSIUM [3]: 5.95 MEQ/L
SODIUM [3]: 144.1 MEQ/L
TOTAL BILIRUBIN [3]: 0.17 mg/dL
TOTAL PROTEIN [3]: 5.23 G/DL
URIC ACID [3]: 1.57 mg/dL
